Measurements reported in ChEMBL document CHEMBL3885861, “Open TG-GATES”.

Organism: Rattus norvegicus
Test: Open TG-GATES - Regimen: Single
Format: toxicity, organism-based, Sprague-Dawley
Design: regimen Single, gender Male, age 6 weeks
Details: in vivo, po, 15 mg/kg, route gavage, dose level Middle; for APTT / Bas / Eos / Fbg / Hb / Ht / Lym / MCH / MCHC / MCV / Mono / Neu / PT / Plat / RBC / Ret / WBC: tissue Blood; for KIDNEY_L / KIDNEY_R / KIDNEY_TOTAL: tissue Kidney; for LIVER: tissue Liver; for A/G / ALP / ALT / AST / BUN / CRE / Ca / Cl / DBIL / GLC / IP / K / LDH / Na / PL / RALB / TBIL / TC / TG / TP / gamma-GTP: tissue Plasma

CC(=N)S [THIOACETAMIDE]
TERMINAL_BW (3 h): 190.8 g | APTT (3 h): 16.9 s | Bas (3 h): 0% | Eos (3 h): 0.2% | Fbg (3 h): 228 mg/dL | Hb (3 h): 13.2 g/dL | Ht (3 h): 39.8% | Lym (3 h): 82% | MCH (3 h): 21.7 pg | MCHC (3 h): 33.1% | MCV (3 h): 65.4 fL | Mono (3 h): 8% | Neu (3 h): 10% | PT (3 h): 12.4 s | Plat (3 h): 102.8 x10_4/uL | RBC (3 h): 608.5 x10_4/ul | Ret (3 h): 10% | WBC (3 h): 130 x10_2/uL | KIDNEY_L (3 h): 0.9 g | KIDNEY_R (3 h): 0.9 g | KIDNEY_TOTAL (3 h): 1.8 g | LIVER (3 h): 8.9 g | A/G (3 h): 2.4 | ALP (3 h): 868.5 IU/L | ALT (3 h): 33.8 IU/L | AST (3 h): 71 IU/L | BUN (3 h): 11.8 mg/dL | CRE (3 h): 0.5 mg/dL | Ca (3 h): 10.9 mg/dL | Cl (3 h): 104.5 meq/L | DBIL (3 h): 0.0025 mg/dL | GLC (3 h): 175.8 mg/dL | IP (3 h): 9.6 mg/dL | K (3 h): 4.4 meq/L | LDH (3 h): 84.2 IU/L | Na (3 h): 138.8 meq/L | PL (3 h): 141.5 mg/dL | RALB (3 h): 4 g/dL | TBIL (3 h): 0.3 mg/dL | TC (3 h): 81.5 mg/dL | TG (3 h): 55 mg/dL | TP (3 h): 5.7 g/dL | gamma-GTP (3 h): 3.2 IU/L | TERMINAL_BW (6 h): 187.8 g | APTT (6 h): 17.2 s | Bas (6 h): 0% | Eos (6 h): 0.6% | Fbg (6 h): 224.8 mg/dL | Hb (6 h): 13.4 g/dL | Ht (6 h): 40.5% | Lym (6 h): 74.6% | MCH (6 h): 21.6 pg | MCHC (6 h): 33.2% | MCV (6 h): 65.1 fL | Mono (6 h): 5.8% | Neu (6 h): 19.4% | PT (6 h): 12.7 s | Plat (6 h): 97.4 x10_4/uL | RBC (6 h): 621.2 x10_4/ul | Ret (6 h): 10% | WBC (6 h): 125.4 x10_2/uL | KIDNEY_L (6 h): 0.9 g | KIDNEY_R (6 h): 0.9 g | KIDNEY_TOTAL (6 h): 1.8 g | LIVER (6 h): 8.4 g | A/G (6 h): 2.1 | ALP (6 h): 924.4 IU/L | ALT (6 h): 33 IU/L | AST (6 h): 70.4 IU/L | BUN (6 h): 10.2 mg/dL | CRE (6 h): 0.6 mg/dL | Ca (6 h): 10.5 mg/dL | Cl (6 h): 104 meq/L | DBIL (6 h): 0.022 mg/dL | GLC (6 h): 171.4 mg/dL | IP (6 h): 9.1 mg/dL | K (6 h): 4.9 meq/L | LDH (6 h): 77 IU/L | Na (6 h): 137.2 meq/L | PL (6 h): 142.8 mg/dL | RALB (6 h): 3.7 g/dL | TBIL (6 h): 0.4 mg/dL | TC (6 h): 80 mg/dL | TG (6 h): 73 mg/dL | TP (6 h): 5.4 g/dL | gamma-GTP (6 h): 1 IU/L | TERMINAL_BW (9 h): 183.3 g | APTT (9 h): 17.2 s | Bas (9 h): 0% | Eos (9 h): 0.6% | Fbg (9 h): 226 mg/dL | Hb (9 h): 13.2 g/dL | Ht (9 h): 40.2% | Lym (9 h): 67.2% | MCH (9 h): 21.5 pg | MCHC (9 h): 33% | MCV (9 h): 65.1 fL | Mono (9 h): 8.8% | Neu (9 h): 23.4% | PT (9 h): 13.3 s | Plat (9 h): 107 x10_4/uL | RBC (9 h): 617.4 x10_4/ul | Ret (9 h): 9.1% | WBC (9 h): 126.9 x10_2/uL | KIDNEY_L (9 h): 0.8 g | KIDNEY_R (9 h): 0.8 g | KIDNEY_TOTAL (9 h): 1.7 g | LIVER (9 h): 7.7 g | A/G (9 h): 2.2 | ALP (9 h): 887.6 IU/L | ALT (9 h): 31.6 IU/L | AST (9 h): 71.6 IU/L | BUN (9 h): 12.6 mg/dL | CRE (9 h): 0.5 mg/dL | Ca (9 h): 10.2 mg/dL | Cl (9 h): 104.2 meq/L | DBIL (9 h): 0.006 mg/dL | GLC (9 h): 178.2 mg/dL | IP (9 h): 9.8 mg/dL | K (9 h): 4.5 meq/L | LDH (9 h): 93.6 IU/L | Na (9 h): 137.2 meq/L | PL (9 h): 122.6 mg/dL | RALB (9 h): 3.8 g/dL | TBIL (9 h): 0.5 mg/dL | TC (9 h): 71.6 mg/dL | TG (9 h): 40.6 mg/dL | TP (9 h): 5.6 g/dL | gamma-GTP (9 h): 1.4 IU/L | TERMINAL_BW (24 h): 202.6 g | APTT (24 h): 16.4 s | Bas (24 h): 0% | Eos (24 h): 1% | Fbg (24 h): 231.6 mg/dL | Hb (24 h): 13.5 g/dL | Ht (24 h): 40.7% | Lym (24 h): 83.8% | MCH (24 h): 21.9 pg | MCHC (24 h): 33.1% | MCV (24 h): 66.1 fL | Mono (24 h): 6.2% | Neu (24 h): 9% | PT (24 h): 12.8 s | Plat (24 h): 107.7 x10_4/uL | RBC (24 h): 616 x10_4/ul | Ret (24 h): 9.1% | WBC (24 h): 163 x10_2/uL | KIDNEY_L (24 h): 1 g | KIDNEY_R (24 h): 0.9 g | KIDNEY_TOTAL (24 h): 1.9 g | LIVER (24 h): 10.2 g | A/G (24 h): 2 | ALP (24 h): 915.6 IU/L | ALT (24 h): 44.4 IU/L | AST (24 h): 71 IU/L | BUN (24 h): 17.2 mg/dL | CRE (24 h): 0.5 mg/dL | Ca (24 h): 10.6 mg/dL | Cl (24 h): 103.8 meq/L | DBIL (24 h): 0.014 mg/dL | GLC (24 h): 179.6 mg/dL | IP (24 h): 7.5 mg/dL | K (24 h): 5.1 meq/L | LDH (24 h): 98.6 IU/L | Na (24 h): 137 meq/L | PL (24 h): 164 mg/dL | RALB (24 h): 3.9 g/dL | TBIL (24 h): 0.3 mg/dL | TC (24 h): 85.2 mg/dL | TG (24 h): 149.8 mg/dL | TP (24 h): 5.8 g/dL | gamma-GTP (24 h): 2.4 IU/L
